According to the supplement of paper PMC10307832:

How the values were obtained:
Assay in all cases: relative viability (nuclei count vs DMSO), 5 days (fraction); higher = more cells survive
[1] = compound: O=C(O)c1ccc2c(c1)nc(Nc1cccc(Cl)c1)c1ccncc12 [Silmitasertib] + CC(=O)c1c(C)c2cnc(Nc3ccc(N4CCNCC4)cn3)nc2n(C2CCCC2)c1=O [Palbociclib] (partner 0.5 µM)
Outline: (§1)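 Lung cancer cell lines in 1536-well plates got either a single drug or a fixed anchor-drug dose together with five library-drug doses (not always all listed) in √10 steps, by pin tool, on the day after seeding. Nuclei were counted after 5 days, and relative viability is the treated-to-vehicle ratio of nuclei counts. Values are medians of duplicate plates.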

[2] = compound: O=C(O)c1ccc2c(c1)nc(Nc1cccc(Cl)c1)c1ccncc12 [Silmitasertib] + CC(C)C[C@H](NC(=O)[C@H](Cc1ccccc1)NC(=O)c1cnccn1)B(O)O [Bortezomib] (partner 0.002 µM)
Outline: as §1

[3] = compound: O=C(O)c1ccc2c(c1)nc(Nc1cccc(Cl)c1)c1ccncc12 [Silmitasertib] + COc1cc2c(Oc3ccc(NC(=O)C4(C(=O)Nc5ccc(F)cc5)CC4)cc3F)ccnc2cc1OCCCN1CCOCC1 [Foretinib] (partner 0.25 µM)
Outline: as §1

[4] = compound: O=C(O)c1ccc2c(c1)nc(Nc1cccc(Cl)c1)c1ccncc12 [Silmitasertib] + Nc1nc2[nH]cc(CCc3ccc(C(=O)N[C@@H](CCC(=O)O)C(=O)O)cc3)c2c(=O)[nH]1 [Pemetrexed] (partner 0.2 µM)
Outline: as §1

[5] = compound: O=C(O)c1ccc2c(c1)nc(Nc1cccc(Cl)c1)c1ccncc12 [Silmitasertib] + Nc1ncn([C@H]2C[C@H](O)[C@@H](CO)O2)c(=O)n1 [Decitabine] (partner 2 µM)
Outline: as §1

Row | Cell Line | relative viability ([1]; first compound 0.04 µM) | relative viability ([1]; first compound 0.4 µM) | relative viability ([1]; first compound 1.265 µM) | relative viability ([1]; first compound 4 µM) | relative viability ([2]; first compound 0.04 µM) | relative viability ([2]; first compound 0.4 µM) | relative viability ([2]; first compound 1.265 µM) | relative viability ([2]; first compound 4 µM) | relative viability ([3]; first compound 0.04 µM) | relative viability ([3]; first compound 0.4 µM) | relative viability ([3]; first compound 1.265 µM) | relative viability ([3]; first compound 4 µM) | relative viability ([4]; first compound 0.04 µM) | relative viability ([4]; first compound 0.4 µM) | relative viability ([4]; first compound 1.265 µM) | relative viability ([4]; first compound 4 µM) | relative viability ([5]; first compound 0.04 µM) | relative viability ([5]; first compound 0.4 µM) | relative viability ([5]; first compound 1.265 µM) | relative viability ([5]; first compound 4 µM)
1 | NCI-H2405 | 0.574 | 0.501 | 0.425 | 0.536 | 0.936 | 0.792 | 0.874 | 0.904 | 1.02 | 0.887 | 0.967 | 0.964 | 1.12 | 1 | 0.73 | 0.86 | 0.779 | 0.735 | 0.716 | 0.794
2 | NCI-H3122 | 0.219 | 0.17 | 0.172 | 0.155 | 1.11 | 0.935 | 1.03 | 1.12 | 0.821 | 0.86 | 0.982 | 0.947 | 0.203 | 0.189 | 0.185 | 0.194 | 0.514 | 0.337 | 0.416 | 0.511
3 | PC-3 [JPC-3] | 0.544 | 0.544 | 0.615 | 0.585 | 0.892 | 0.699 | 0.891 | 0.826 | 1.12 | 0.852 | 1.14 | 0.998 | 1.18 | 0.919 | 1.15 | 0.6 | 0.968 | 0.846 | 0.836 | 0.723
4 | PC-14 | 0.581 |  | 0.553 | 0.541 | 0.946 | 0.788 | 0.871 | 0.819 | 1.05 | 1.02 | 0.965 | 0.461 | 0.134 |  | 0.122 | 0.113 | 0.265 | 0.214 | 0.271 | 0.192
5 | RERF-LC-KJ | 1.16 | 0.993 | 0.758 | 0.798 | 1.15 | 0.95 | 0.779 | 0.574 | 0.887 | 0.753 | 0.765 | 0.628 | 0.488 | 0.445 | 0.439 | 0.342 | 0.766 | 0.627 | 0.455 | 0.344
6 | SK-LU-1 | 0.424 | 0.342 | 0.245 | 0.312 | 1.33 | 0.735 | 0.801 | 0.394 | 0.954 | 0.693 | 0.621 | 0.417 | 0.984 | 0.885 | 0.771 | 0.351 | 0.708 | 0.622 | 0.297 | 0.428
7 | SW 1573 | 0.415 | 0.373 | 0.309 | 0.337 | 1.09 | 1.15 | 1.02 | 0.977 | 0.882 | 0.801 | 0.744 | 0.202 | 1.11 | 0.875 | 0.89 | 0.697 | 0.515 | 0.406 | 0.441 | 0.372
8 | UMC-11 | 0.364 | 0.344 | 0.347 | 0.379 | 0.679 | 0.588 | 0.65 | 0.542 | 1.19 | 1.16 | 1.11 | 0.619 | 0.951 | 0.785 | 0.774 | 0.553 | 0.688 | 0.464 | 0.587 | 0.541
